Measurements taken from patent US11840686B2, “Modulation of prekallikrein (PKK) expression” (Ionis Pharmaceuticals, Inc., priority 2013, dated 2023).
Strand notation (5' to 3'): a small letter for the sugar, then the base; units joined by * are phosphorothioate-linked, units joined directly phosphodiester-linked; [ ] holds rarer units or linkages, { } end groups; capitals alone tell only the bases. e = 2'-O-(2-methoxyethyl) (MOE); [5mC] = 5-methylcytosine; d = 2'-deoxy (DNA)

These substances were tested on human PKK mRNA (assay: Antisense inhibition of human PKK mRNA in HepaRG cells, 5,000 nM (Example 2)). Conditions: HepaRG cells, electroporation, 5,000 nM antisense oligonucleotide, approx. 24 hours, primer probe set RTS3454, relative to untreated control cells; Table 11.
Assay type: cell-based
Procedure, shortened: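 HepaRG cells, 20,000 per well, were electroporated with 5,000 nM MOE gapmer (phosphorothioate, 5-methylcytosine) and incubated about 24 hours. PKK mRNA was quantified by qRT-PCR with primer probe set RTS3454, normalized to RIBOGREEN total RNA, and expressed as percent inhibition versus untreated controls.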

Row | Substance | % inhibition
1 | 546379 (antisense e[5mC]*eT*e[5mC]*e[5mC]*eA*dT*dG*d[5mC]*dT*dT*dT*dG*d[5mC]*dA*dG*eA*eT*eG*eA*eG) [compound 546379] | 69%
2 | 546380 (antisense eG*e[5mC]*e[5mC]*eA*e[5mC]*dT*d[5mC]*dT*d[5mC]*d[5mC]*dA*dT*dG*d[5mC]*dT*eT*eT*eG*e[5mC]*eA) [compound 546380] | 81%
3 | 546381 (antisense eG*eA*eA*eG*eA*dT*dG*d[5mC]*d[5mC]*dA*d[5mC]*dT*d[5mC]*dT*d[5mC]*e[5mC]*eA*eT*eG*e[5mC]) [compound 546381] | 73%
4 | 546382 (antisense e[5mC]*eA*eA*eA*eG*dA*dA*dG*dA*dT*dG*d[5mC]*d[5mC]*dA*d[5mC]*eT*e[5mC]*eT*e[5mC]*e[5mC]) [compound 546382] | 58%
5 | 546383 (antisense eG*eG*eA*eT*eG*d[5mC]*dA*dA*dA*dG*dA*dA*dG*dA*dT*eG*e[5mC]*e[5mC]*eA*e[5mC]) [compound 546383] | 57%
6 | 546384 (antisense e[5mC]*eG*eT*e[5mC]*e[5mC]*dT*dT*dA*dG*dG*dA*dT*dG*d[5mC]*dA*eA*eA*eG*eA*eA) [compound 546384] | 81%
7 | 546385 (eA*eT*eT*eG*eT*d[5mC]*d[5mC]*dT*d[5mC]*dA*dG*d[5mC]*dA*dG*d[5mC]*eT*e[5mC]*eT*eG*eA; antisense) [compound 546385] | 67%
8 | 546386 (eA*eG*e[5mC]*e[5mC]*eA*dG*dA*d[5mC]*dA*dT*dT*dG*dT*d[5mC]*d[5mC]*eT*e[5mC]*eA*eG*e[5mC]; antisense) [compound 546386] | 78%
9 | 546387 (eA*eG*e[5mC]*eG*eG*dG*d[5mC]*dT*dT*d[5mC]*dA*dG*d[5mC]*d[5mC]*dA*eG*eA*e[5mC]*eA*eT; antisense) [compound 546387] | 77%
10 | 546388 (e[5mC]*eT*eG*eA*eA*dA*dG*d[5mC]*dG*dG*dG*d[5mC]*dT*dT*d[5mC]*eA*eG*e[5mC]*e[5mC]*eA; antisense) [compound 546388] | 71%
11 | 546389 (e[5mC]*eG*eT*eG*e[5mC]*dT*dG*dA*dA*dA*dG*d[5mC]*dG*dG*dG*e[5mC]*eT*eT*e[5mC]*eA; antisense) [compound 546389] | 71%
12 | 546390 (eG*eT*e[5mC]*eA*eG*d[5mC]*d[5mC]*d[5mC]*d[5mC]*dT*dG*dG*dT*dT*dA*e[5mC]*eG*eG*e[5mC]*eG; antisense) [compound 546390] | 70%
13 | 546391 (eG*e[5mC]*eA*eT*eT*dG*dT*d[5mC]*dA*dG*d[5mC]*d[5mC]*d[5mC]*d[5mC]*dT*eG*eG*eT*eT*eA; antisense) [compound 546391] | 54%
14 | 546392 (eG*eA*e[5mC]*e[5mC]*eT*d[5mC]*dG*d[5mC]*dA*dT*dT*dG*dT*d[5mC]*dA*eG*e[5mC]*e[5mC]*e[5mC]*e[5mC]; antisense) [compound 546392] | 72%
15 | 546393 (eT*e[5mC]*eT*e[5mC]*eA*dG*dT*dT*dG*d[5mC]*dG*dA*d[5mC]*d[5mC]*dT*e[5mC]*eG*e[5mC]*eA*eT; antisense) [compound 546393] | 77%
16 | 546394 (eG*eT*e[5mC]*eA*eT*dG*dG*dA*dG*dA*dT*d[5mC]*dT*d[5mC]*dA*eG*eT*eT*eG*e[5mC]; antisense) [compound 546394] | 71%

Same assay, conditions: HepaRG cells, electroporation, 5,000 nM antisense oligonucleotide, approx. 24 hours, primer probe set RTS3454, relative to untreated control cells; Table 12

Row | Substance | % inhibition
17 | 546395 (eT*eT*e[5mC]*eA*e[5mC]*dA*dA*d[5mC]*dA*d[5mC]*dA*d[5mC]*dA*dG*dT*e[5mC]*eA*eT*eG*eG; antisense) [compound 546395] | 72%
18 | 546397 (eT*eT*eT*eT*eT*dT*dG*dA*dT*d[5mC]*dT*dT*dT*d[5mC]*dA*e[5mC]*e[5mC]*eA*eT*eT; antisense) [compound 546397] | 55%
19 | 546406 (eT*eG*eT*e[5mC]*e[5mC]*dT*dG*dT*d[5mC]*dA*dA*d[5mC]*dA*dT*dA*eT*eT*e[5mC]*e[5mC]*eA; antisense) [compound 546406] | 80%
